The structures appear in SMILES notation.

One test has as its system wild-type HCT-116 cells. As to the kind of experiment: Cell proliferation (MTS), wild-type HCT-116. It counts as cell-based. The following applies: Homo sapiens, 240 h; wild-type HCT-116, 10 days with compound, MTS reading; read-out: IC50 HCT116 WT. The procedure, abridged:
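Wild-type HCT-116 cells were seeded at 100 cells/well in McCoy's 5A/10% FBS. From day 1 they were treated with compound in 3-fold dilutions (initial 20 µM, 8 points) for 10 days at 37° C. Proliferation was read by MTS on day 11, and IC50 was obtained from a four-parameter logistic fit.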

The next test concerns MTAP^-/- HCT-116 cells. As to the kind of experiment: Cell proliferation (MTS), MTAP-/- HCT-116. It counts as cell-based, human. The note with it: for Selectivity: HCT116 WT IC50 relative to HCT116 MTAP-/- IC50; for IC50: Homo sapiens, 240 h, MTAP-/- HCT-116, 10 days with compound, MTS reading, read-out: IC50 HCT116 MTAP-/-. The method in brief:
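MTAP-/- (CRISPR/Cas9 biallelic knockout) or wild-type HCT-116 cells seeded at 100 cells/well, treated next day with 8-point 3-fold dilutions (top 20 µM) for 10 days at 37 °C, 5% CO2. Viability read by MTS; IC50 from four-parameter logistic fit of inhibition rate vs log concentration.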

As to `Cc1ccncc1C#Cc1ccc2c(c1)OCC2N(C)C(=O)c1cc2c(cc1F)nc(N)c1cnn(C)c12` (stereo not drawn) [Compound 44, 4-amino-7-fluoro-N,1-dimethyl-N-(6-((4-methylpyridin-3-yl)ethynyl)-2,3-dihydrobenzofuran-3-yl)-1H-pyrazolo[4,3-c]quinoline-8-carboxamide], the IC50 in the test with wild-type HCT-116 cells amounted to 736 nM. Also, in the test on MTAP^-/- HCT-116 cells, the Selectivity came out at 67 and the IC50 was 11 nM.

As to `Cc1ncccc1C#Cc1ccc2c(c1)OC[C@H]2N(C)C(=O)c1cc2c(cc1F)nc(N)c1cnn(C)c12` [Compound 45A, (S)-4-amino-7-fluoro-N,1-dimethyl-N-(6-((2-methylpyridin-3-yl)ethynyl)-2,3-dihydrobenzofuran-3-yl)-1H-pyrazolo[4,3-c]quinoline-8-carboxamide], the IC50 with wild-type HCT-116 cells is 213 nM. In addition, in the test on MTAP^-/- HCT-116 cells, the Selectivity turned out to be 53 and the IC50 was determined as 4 nM.

Regarding `CN1CCn2c(C#Cc3ccc4c(c3)OCC4N(C)C(=O)c3cc4c(cc3F)nc(N)c3cnn(C)c34)cnc2C1` (stereo not drawn) [Compound 46, 4-amino-7-fluoro-N,1-dimethyl-N-(6-((7-methyl-5,6,7,8-tetrahydroimidazo[1,2-a]pyrazin-3-yl)ethynyl)-2,3-dihydrobenzofuran-3-yl)-1H-pyrazolo[4,3-c]quinoline-8-carboxamide], the values for the IC50 in the test on wild-type HCT-116 cells and with MTAP^-/- HCT-116 cells were 467 nM and 3 nM, respectively. Besides, the Selectivity with MTAP^-/- HCT-116 cells is recorded as 156.

As for `Cc1cncc(C#Cc2ccc3c(c2)OC[C@H]3N(C)C(=O)c2cc3c(cc2F)nc(N)c2cnn(C)c23)c1` [Compound 47A, (S)-4-amino-7-fluoro-N,1-dimethyl-N-(6-((5-methylpyridin-3-yl)ethynyl)-2,3-dihydrobenzofuran-3-yl)-1H-pyrazolo[4,3-c]quinoline-8-carboxamide], the IC50 came to 598 nM in the test with wild-type HCT-116 cells and 5.2 nM in the test on MTAP^-/- HCT-116 cells. Moreover, in the test on MTAP^-/- HCT-116 cells, the Selectivity was 115.

As to `CN(C(=O)c1cc2c(cc1F)nc(N)c1cnn(C)c12)[C@@H]1COc2cc(C#Cc3cccnc3)ccc21` [Compound 48A, (S)-4-amino-7-fluoro-N,1-dimethyl-N-(6-(pyridin-3-ylethynyl)-2,3-dihydrobenzof uran-3-yl)-1H-pyrazolo[4,3-c]quinoline-8-carboxamide], the IC50 in the test with wild-type HCT-116 cells is 141 nM. In the test with MTAP^-/- HCT-116 cells, the Selectivity was found to be 71 and the IC50 turned out to be 2 nM.

Regarding `Cc1nn(C)cc1C#Cc1ccc2c(c1)OC[C@H]2N(C)C(=O)c1ccc2nc(N)c3cnn(C)c3c2c1` [Compound 49A, (S)-4-amino-N-(6-((1,3-dimethyl-1H-pyrazol-4-yl)ethynyl)-2,3-dihydrobenzofuran-3-yl)-N,1-dimethyl-1H-pyrazolo[4,3-c]quinoline-8-carboxamide], the IC50 in the test with wild-type HCT-116 cells was 378 nM. Besides, in the test with MTAP^-/- HCT-116 cells, the Selectivity is listed as 210 and the IC50 turned out to be 1.8 nM.

As for `CN(C(=O)c1cc2c(cc1Cl)nc(N)c1cnn(C)c12)[C@@H]1COc2cc(C#Cc3ccnn3C)ccc21` [Compound 53A, (S)-4-amino-7-chloro-N,1-dimethyl-N-(6-((1-methyl-1H-pyrazol-5-yl)ethynyl)-2,3-dihydrobenzofuran-3-yl)-1H-pyrazolo[4,3-c]quinoline-8-carboxamide], the IC50 in the test on wild-type HCT-116 cells was determined as 45 nM. In the test with MTAP^-/- HCT-116 cells, the Selectivity is given as 45 and the IC50 was found to be 1 nM.

Take `Cc1ccc(C#Cc2ccc3c(c2)OC[C@H]3N(C)C(=O)c2cc3c(cc2Cl)nc(N)c2cnn(C)c23)cn1` [Compound 55A, (S)-4-amino-7-chloro-N,1-dimethyl-N-(6-((6-methylpyridin-3-yl)ethynyl)-2,3-dihydrobenzofuran-3-yl)-1H-pyrazolo[4,3-c]quinoline-8-carboxamide]: the IC50 turned out to be 217 nM in the test on wild-type HCT-116 cells and 5 nM with MTAP^-/- HCT-116 cells. Also, the Selectivity with MTAP^-/- HCT-116 cells came to 43.

For `CN(C(=O)c1cc2c(cc1Cl)nc(N)c1cnn(C)c12)[C@@H]1COc2cc(C#Cc3cccnc3F)ccc21` [Compound 56A, (S)-4-amino-7-chloro-N-(6-((2-fluoropyridin-3-yl)ethynyl)-2,3-dihydrobenzofuran-3-yl)-N,1-dimethyl-1H-pyrazolo[4,3-c]quinoline-8-carboxamide], the IC50 in the test on wild-type HCT-116 cells worked out at 160 nM. In the test with MTAP^-/- HCT-116 cells, the Selectivity came out at 53 and the IC50 was determined as 3 nM.

For the compound `Cc1ccc(C#Cc2ccc3c(c2)OC[C@H]3N(C)C(=O)c2cc3c4c(c(N)nc3cc2Cl)COC4)cn1` [Compound 58A, (S)-4-amino-7-chloro-N-methyl-N-(6-((6-methylpyridin-3-yl)ethynyl)-2,3-dihydrobenzofuran-3-yl)-1,3-dihydrofuro[3,4-c]quinoline-8-carboxamide], the IC50 with wild-type HCT-116 cells was 2220 nM. Moreover, in the test on MTAP^-/- HCT-116 cells, the Selectivity came to 234 and the IC50 worked out at 9.5 nM.

As to `Cc1ccc(C#Cc2ccc3c(c2)OC[C@H]3N(C)C(=O)c2cc3c(cc2F)nc(N)c2cnn(C)c23)cn1` [Compound 59A, (S)-4-amino-7-fluoro-N,1-dimethyl-N-(6-((6-methylpyridin-3-yl)ethynyl)-2,3-dihydrobenzofuran-3-yl)-1H-pyrazolo[4,3-c]quinoline-8-carboxamide], the IC50 in the test with wild-type HCT-116 cells was determined as 305 nM; with MTAP^-/- HCT-116 cells it was 4.6 nM. In the test on MTAP^-/- HCT-116 cells, the Selectivity came out at 66.

Regarding `CN(C(=O)c1cc2c(cc1F)nc(N)c1cnn(C)c12)[C@@H]1COc2cc(C#Cc3ccc4cnn(C)c4c3)ccc21` [Compound 60A, (5)-4-amino-7-fluoro-N,1-dimethyl-N-(6-((1-methyl-1H-indazol-6-yl)ethynyl)-2,3-dihydrobenzofuran-3-yl)-1H-pyrazolo[4,3-c]quinoline-8-carboxamide], the results for the IC50 with wild-type HCT-116 cells and with MTAP^-/- HCT-116 cells were 486 nM and 8 nM, respectively. In addition, in the test on MTAP^-/- HCT-116 cells, the Selectivity came to 61.

`CN(C(=O)c1cc2c3c(c(N)nc2cc1Cl)COC3)[C@@H]1COc2cc(C#Cc3ccc4cnn(C)c4c3)ccc21` [Compound 62A, (S)-4-amino-7-chloro-N-methyl-N-(6-((1-methyl-1H-indazol-6-yl)ethynyl)-2,3-dihydrobenzofuran-3-yl)-1,3-dihydrofuro[3,4-c]quinoline-8-carboxamide]: the IC50 in the test on wild-type HCT-116 cells is 1260 nM; in the test with MTAP^-/- HCT-116 cells it was 15.9 nM. Also, the Selectivity in the test with MTAP^-/- HCT-116 cells is given as 79.

Turning to `Cc1ccncc1C#Cc1ccc2c(c1)OC[C@H]2N(C)C(=O)c1cc2c(cc1Cl)nc(N)c1cnn(C)c12` [Compound 63A, (S)-4-amino-7-chloro-N,1-dimethyl-N-(6-((4-methylpyridin-3-yl)ethynyl)-2,3-dihydrobenzofuran-3-yl)-1H-pyrazolo[4,3-c]quinoline-8-carboxamide], the IC50 in the test with wild-type HCT-116 cells is 85 nM. In the test with MTAP^-/- HCT-116 cells, the Selectivity worked out at 43 and the IC50 was determined as 2 nM.

For `Cc1cncc(C#Cc2ccc3c(c2)OC[C@H]3N(C)C(=O)c2cc3c(cc2Cl)nc(N)c2cnn(C)c23)c1` [Compound 65A, (S)-4-amino-7-chloro-N,1-dimethyl-N-(6-((5-methylpyridin-3-yl)ethynyl)-2,3-dihydrobenzofuran-3-yl)-1H-pyrazolo[4,3-c]quinoline-8-carboxamide], the IC50 with wild-type HCT-116 cells came out at 141 nM. In the test on MTAP^-/- HCT-116 cells, the Selectivity amounted to 71 and the IC50 was 2 nM.

With `CN(C(=O)c1cc2c(cc1Cl)nc(N)c1cnn(C)c12)[C@@H]1COc2cc(C#Cc3cnn(C(F)F)c3)ccc21` [Compound 67A, (S)-4-amino-7-chloro-N-(6-((1-(difluoromethyl)-1H-pyrazol-4-yl)ethynyl)-2,3-dihydrobenzofuran-3-yl)-N,1-dimethyl-1H-pyrazolo[4,3-c]quinoline-8-carboxamide], in the test with wild-type HCT-116 cells, the IC50 worked out at 85 nM. In addition, in the test with MTAP^-/- HCT-116 cells, the Selectivity was determined as 43 and the IC50 amounted to 2 nM.

Turning to `CN(C(=O)c1cc2c3c(c(N)nc2cc1Cl)COC3)[C@@H]1COc2cc(C#Cc3cn(C)nc3Cl)ccc21` [Compound 68A, (S)-4-amino-7-chloro-N-(6-((3-chloro-1-methyl-1H-pyrazol-4-yl)ethynyl)-2,3-dihydrobenzofuran-3-yl)-N-methyl-1,3-dihydrofuro[3,4-c]quinoline-8-carboxamide], the IC50 in the test with wild-type HCT-116 cells was determined as 312 nM. Besides, in the test with MTAP^-/- HCT-116 cells, the Selectivity came to 47 and the IC50 was 6.6 nM.

As for `CCn1cc(C#Cc2ccc3c(c2)OC[C@H]3N(C)C(=O)c2cc3c4c(c(N)nc3cc2Cl)COC4)cn1` [Compound 69A, (S)-4-amino-7-chloro-N-(6-((1-ethyl-1H-pyrazol-4-yl)ethynyl)-2,3-dihydrobenzof uran-3-yl)-N-methyl-1,3-dihydrofuro[3,4-c]quinoline-8-carboxamide], in the test on wild-type HCT-116 cells, the IC50 is 864 nM. Besides, in the test with MTAP^-/- HCT-116 cells, the Selectivity is 173 and the IC50 worked out at 5 nM.

Consider `CN(C(=O)c1cc2c3c(c(N)nc2cc1Cl)COC3)[C@@H]1COc2cc(C#Cc3cccnc3)ccc21` [Compound 70A, (S)-4-amino-7-chloro-N-methyl-N-(6-(pyridin-3-ylethynyl)-2,3-dihydrobenzofuran-3-yl)-1,3-dihydrofuro[3,4-c]quinoline-8-carboxamide], for which, in the test with wild-type HCT-116 cells, the IC50 was 475 nM. In addition, in the test with MTAP^-/- HCT-116 cells, the Selectivity is reported as 132 and the IC50 worked out at 3.6 nM.

With `Cc1c(C#Cc2ccc3c(c2)OC[C@H]3N(C)C(=O)c2cc3c4c(c(N)nc3cc2Cl)COC4)cnn1C1CC1` [Compound 71A, (S)-4-amino-7-chloro-N-(6-((1-cyclopropyl-5-methyl-1H-pyrazol-4-yl)ethynyl)-2,3-dihydrobenzofuran-3-yl)-N-methyl-1,3-dihydrofuro[3,4-c]quinoline-8-carboxamide], in the test with wild-type HCT-116 cells, the IC50 is 674 nM. Further, in the test with MTAP^-/- HCT-116 cells, the Selectivity was determined as 48 and the IC50 amounted to 14 nM.

(Values after patent EP4755886A1 (Chengdu Chipscreen Pharmaceutical Ltd., priority 2023, dated 2025).)
